Experiments:
[1] = system: guinea pig isolated bronchial rings; assay: eNANC contractile response of isolated guinea pig bronchial rings; format: cell-based
Experimental: Guinea pig bronchial rings were mounted in organ baths. After an equilibration period the eNANC contractile response to EFS (5 Hz, 20 sec, 0.5 ms pulse width at 40 V) in the presence of atropine (1 μM) was studied. The effects of Andolast or its vehicle on the eNANC were studied in parallel experiments in the presence or absence of 100 nM charybdotoxin. The ability of Andolast to affect the direct bronchoconstrictor activity of SP was also studied.

[2] = system: slices of rat dorsal spinal cord; assay: CGRP-LI outflow from slices of rat dorsal spinal cord (EIA); format: cell-based
Experimental: (§1) Slices of guinea pig trachea and bronchi or of rat dorsal spinal cord were prepared and transferred to perfusion chambers and perfused. After an equilibration period, samples were collected before, during and after the delivery of an excitatory stimulus (KCl 80 mM). The effect of Andolast was compared with the effect of its vehicle. CGRP-like immunoreactivity (GCRP-LI) was measured by enzyme immunoassay (EIA).
In the rat dorsal spinal cord the experiments with Andolast were performed also in the presence of 100 nM charybdotoxin.

[3] = system: human B lymphocytes from allergic donors; assay: IL-4 dependent IgE synthesis by human B lymphocytes; format: cell-based
[4] = system: T lymphocytes (Th2); assay: Treatment course in atopic mild-moderate asthmatic patients; format: in vivo, human; details: standard treatment course
[5] = system: slices of guinea pig airways; assay: CGRP-LI outflow from slices of guinea pig airways (EIA); format: cell-based
Experimental: as §1

[6] = system: newborn rat cultured DRG neurons; assay: [Ca2+]i mobilization in cultured DRG neurons (Fura-2); format: cell-based
Experimental: Dorsal root ganglia (DRG) were removed from 1-3 days old rats and dissociated into single cells according to well established procedures. Cells, plated on coated glass coverslips were loaded with Fura-2-AM-ester to detect relative intracellular calcium ([Ca^2+]i) changes.
During the Ca^2+ fluorescence the cells were excited with electrical stimulation (10 Hz, 1 ms, 0.40 mA/cm^2 for 10 sec) twice with a resting period between each stimulation of 20 min. These experiments were performed in the presence or absence of 100 nM charybdotoxin.

O=C(Nc1ccc(-c2nn[nH]n2)cc1)c1ccc(-c2nn[nH]n2)cc1 [Andolast, N-4-(1H-tetrazol-5-yl)phenyl-4-(1H-tetrazol-5-yl)benzamide]
contractile response to SP ([1]; Andolast 10 μM): did not affect | inhibition at 10 µM ([1]; Cavia porcellus, 10 μM Andolast, atropine 1 μM, read-out: maximum inhibition of the contractile response to EFS): 45% | effect on EFS contraction in presence of charybdotoxin ([1]; charybdotoxin 0.1 μM): completely abrogated | contractile response to EFS (eNANC) ([1]; in the presence of atropine (1 μM), pretreatment with Andolast): diminished dose-dependently | inhibition of high K+ induced CGRP-LI outflow in presence of charybdotoxin ([2]; 100 nM charybdotoxin): completely abrogated | maximum inhibition of the outflow of CGRP-LI induced by high K+ medium ([2]; Andolast 1 μM, KCl 80 mM): 48 % of vehicle | outflow of CGRP-LI (without stimulus) ([2]; Andolast 0.1-1 μM, rat dorsal spinal cord slices): did not cause any significant increase | outflow of CGRP-LI induced by high K+ medium ([2]; KCl 80 mM, rat dorsal spinal cord slices): concentration-dependent inhibition | IL-4 dependent IgE synthesis [3]: potent inhibitory effect | T lymphocytes (Th2) production of IL-5 [4]: inhibitory effect | percentage of eosinophils in the sputum [4]: decrease | outflow of CGRP-LI (without stimulus) ([5]; Andolast 0.1-1 μM, guinea pig airway slices): did not cause any significant increase | inhibition at 1 µM ([5]; Cavia porcellus, Andolast 1 μM, KCl 80 mM, read-out: inhibition of the CGRP-LI outflow induced by high K+ medium): 67% | inhibitory effect on EFS-induced [Ca2+]i mobilization in presence of charybdotoxin ([6]; 100 nM charybdotoxin (ChTX)): completely reversed | response to capsaicin ([Ca2+]i) ([6]; capsaicin 0.1 μM, pretreatment with Andolast 10 μM): not affected | mobilization of [Ca2+]i in response to ionomycin ([6]; pre-treatment with Andolast 10 μM or its vehicle): similar | response to EFS ([Ca2+]i mobilization) ([6]; pretreatment with Andolast compared to vehicle, EFS 10 Hz, 1 ms, 0.40 mA/cm2 for 10 sec): diminished the response to EFS

Source: patent US7482371B2, “N-phenylbenzamide derivatives as drugs for the treatment of COPD” (Rottapharm S.p.A., priority 2004, dated 2009)
